Test results: paper PMC9790248, “Effects of CYP3A Inhibition, CYP3A Induction, and Gastric Acid Reduction on the Pharmacokinetics of Ripretinib, a Switch Control KIT Tyrosine Kinase Inhibitor” (Clinical Pharmacology in Drug Development, 2022)
Values joined by “and” are separate entries in the source; they are usually repeats but may differ in a detail not shown here. Equal entries are not always repeated. Where two headings read alike, the source gives them in different places.

Assays:
[1] = Itraconazole (strong CYP3A inhibitor) DDI study, plasma pharmacokinetics; assay type: in vivo, human; settings: for AUC(0-t) / AUC(0-inf) / Cmax / half-life / Tmax: both sexes, human, plasma; for AUC(0-t) / AUC(0-inf) / Cmax / half-life: po; for AUC(0-t) / AUC(0-inf) / Cmax / half-life / Tmax / CL/F, arithmetic mean (SD) / CL/F, geometric mean (CV%): fasting; for Tmax: read-out: tmax, median (min, max); for Time postdose that mean plasma concentration remained above the LLOQ: LLOQ 2.00 ng/mL
Procedure: All studies were phase 1, fixed‐sequence, open‐label studies in healthy volunteers. One study consisted of two separate cohorts examining DDIs between ripretinib and itraconazole or pantoprazole, respectively; the rifampin study was conducted separately. Studies and cohorts were enrolled independently. Eligible participants were healthy male or female adults between 18 and 55 years of age with a body mass index (BMI) of ≥18.5 and ≤30 kg/m^2. Good health was confirmed by a physician and based on medical evaluation with no significant findings, including medical history, physical examination, laboratory tests, and 12‐lead electrocardiogram (ECG) at screening and day −1. Participants were required to abstain from alcohol, marijuana, grapefruit, Seville oranges, tangelo, star fruit, and grapefruit‐like products 14 days prior to and during the study. Participants with a positive breath test for Helicobacter pylori were excluded from the pantoprazole study.
Ripretinib and its active metabolite DP‐5439 plasma concentrations were measured using a validated high‐performance liquid chromatography (HPLC) with tandem mass spectrometry (LC‐MS/MS) assay with a lower limit of quantification (LLOQ) of 2.00 ng/mL for both analytes. In this method, the analytes (ripretinib and DP‐5439) and the internal standards (ISs; DCC‐2618‐d5 and DP‐5439‐d5) were released from human plasma samples by protein precipitation. The supernatants were chromatographed using reversed‐phase HPLC with a Betasil® C8 analytical column with deionized water (0.1% formic acid) and 40/60 acetonitrile/acetone (0.1% formic acid) as the mobile phase. Mass spectrometric detection was performed on a triple quadrupole tandem mass spectrometer API 5000 or API 5500 (Applied Biosystems/MDS Sciex, Toronto, Canada) equipped with a turbo ion spray source operated in the positive ionization mode. The source parameters were collision energy 40 eV, collision gas 6 psi, Nebulizer Gas 1, Turbo IonSpray Gas 2, and curtain gas 35 psi. Quantification was obtained by using multiple reaction monitoring mode of the transitions of mass to charge ratio [m/z] 510.3 →417 for DCC‐2618 (ripretinib), m/z 496.2 →403 for DP‐5439, m/z 515.3 →417 for DCC‐2618‐d5, and m/z 501.2 →403 for DP‐5439‐d5.
Plasma concentration–time data were analyzed using noncompartmental methods using Phoenix® WinNonlin® v7.0 (Certara USA Inc., Princeton, New Jersey). Derived PK parameters included area under the concentration–time curve from time 0 to time t (AUC0–t) and area under the concentration–time curve from 0 to infinity (AUC0–∞), maximum observed concentration (Cmax), time of maximum observed concentration (tmax), elimination half‐life (t1/2), apparent systemic clearance, and for DP‐5439, metabolite to parent ratio for AUC0–t, AUC0–∞, and Cmax.
The PK population included all participants who received ≥1 dose ripretinib and had ≥1 nonmissing PK concentration in plasma reported for ripretinib or DP‐5439. The PK evaluable set included all participants in the PK population who had ripretinib PK parameters on both ripretinib dosing days, bioanalytical results for ≥75% of planned analyses, no missed ripretinib doses and ≤2 missed perpetrator (itraconazole, pantoprazole, or rifampin) doses before the second dosing day of ripretinib, and no emesis within 8 hours of ripretinib administration. […]

[2] = Stability in human plasma (K2EDTA), bioanalytical validation; assay type: in vitro ADME; settings: with or without concomitant medications
Procedure: Following the bioanalytical method validation guidance, the analytical method was validated to verify that the assay was a robust and reliable measurement of ripretinib and DP‐5439 in human plasma with dipotassium ethylenediaminetetraacetic acid (K2EDTA) as the anticoagulant. The linear range of method was 2.00–1000 ng/mL for both ripretinib and DP‐5439. The coefficient of variation (CV%) (precision) for intra‐ and interassay at each quality control (QC) level was ≤15.0% (≤20.0% at the LLOQ QC level: 2 ng/mL for both ripretinib and DP‐5439). The mean % Bias (accuracy) at each QC level was within ±15.0% (±20.0% at the LLOQ QC level) from its respective nominal concentration.

[3] = cited from earlier work
[4] = Solubility; assay type: physicochemical
[5] = test system: hepatocytes; set-up: method as in PMID 31085175; settings: cited from earlier work
[6] = ripretinib 50 mg single oral dose + itraconazole 200 mg QD, healthy participants (N = 20)
[7] = ripretinib 50 mg single oral dose alone, healthy participants (itraconazole study, N = 20)
[8] = ripretinib 50 mg with itraconazole 200 mg QD relative to ripretinib alone
[9] = 20 mg once daily up to 150 mg once daily

With `CCn1c(=O)c(-c2cc(NC(=O)Nc3ccccc3)c(F)cc2Br)cc2cnc(NC)cc21` [Ripretinib] as the compound, how does the AUC(0-t) ([1]; 50 mg, ripretinib 50 mg single oral dose alone, healthy participants (itraconazole study, N = 20), read-out: AUC0–t, arithmetic mean (SD)) read?
The AUC(0-t) was 4400 ng·h/mL.

What about the AUC(0-t) ([1]; 50 mg, ripretinib 50 mg single oral dose alone, healthy participants (itraconazole study, N = 20), read-out: AUC0–t, geometric mean (CV%)) of the same compound?
The AUC(0-t) was 4060 ng·h/mL.

What about the AUC(0-inf) ([1]; 50 mg, ripretinib 50 mg single oral dose alone, healthy participants (itraconazole study, N = 20), read-out: AUC0–∞, arithmetic mean (SD)) of the same compound?
The AUC(0-inf) was 4500 ng·h/mL.

And the AUC(0-inf) ([1]; 50 mg, ripretinib 50 mg single oral dose alone, healthy participants (itraconazole study, N = 20), read-out: AUC0–∞, geometric mean (CV%))?
The AUC(0-inf) was 4180 ng·h/mL.

What about the Cmax ([1]; 50 mg, ripretinib 50 mg single oral dose alone, healthy participants (itraconazole study, N = 20), read-out: Cmax, arithmetic mean (SD)) of the same compound?
The Cmax was 321 ng/mL.

What about the Cmax ([1]; 50 mg, ripretinib 50 mg single oral dose alone, healthy participants (itraconazole study, N = 20), read-out: Cmax, geometric mean (CV%)) of the same compound?
Its Cmax is 291 ng/mL.

And the half-life ([1]; 50 mg, ripretinib 50 mg single oral dose alone, healthy participants (itraconazole study, N = 20), read-out: t1/2, arithmetic mean (SD) (converted))?
The half-life was 17 h.

What about the half-life ([1]; 50 mg, ripretinib 50 mg single oral dose alone, healthy participants (itraconazole study, N = 20), read-out: t1/2, geometric mean (CV%) (converted)) of the same compound?
Its half-life is 16 h.

And the AUC(0-t) ([1]; ripretinib 50 mg single oral dose + itraconazole 200 mg QD, healthy participants (N = 20), read-out: AUC0–t, arithmetic mean (SD))?
The AUC(0-t) was 8900 ng·h/mL.

What about the AUC(0-t) ([1]; ripretinib 50 mg single oral dose + itraconazole 200 mg QD, healthy participants (N = 20), read-out: AUC0–t, geometric mean (CV%)) of the same compound?
Its AUC(0-t) is 8060 ng·h/mL.

And the AUC(0-inf) ([1]; ripretinib 50 mg single oral dose + itraconazole 200 mg QD, healthy participants (N = 20), read-out: AUC0–∞, arithmetic mean (SD))?
Its AUC(0-inf) is 9190 ng·h/mL.

And the AUC(0-inf) ([1]; ripretinib 50 mg single oral dose + itraconazole 200 mg QD, healthy participants (N = 20), read-out: AUC0–∞, geometric mean (CV%))?
Its AUC(0-inf) is 8310 ng·h/mL.

And the Cmax ([1]; ripretinib 50 mg single oral dose + itraconazole 200 mg QD, healthy participants (N = 20), read-out: Cmax, arithmetic mean (SD))?
Its Cmax is 404 ng/mL.

What about the Cmax ([1]; ripretinib 50 mg single oral dose + itraconazole 200 mg QD, healthy participants (N = 20), read-out: Cmax, geometric mean (CV%)) of the same compound?
The Cmax was 395 ng/mL.

And the half-life ([1]; ripretinib 50 mg single oral dose + itraconazole 200 mg QD, healthy participants (N = 20), read-out: t1/2, arithmetic mean (SD) (converted))?
The half-life was 27 h.

And the half-life ([1]; ripretinib 50 mg single oral dose + itraconazole 200 mg QD, healthy participants (N = 20), read-out: t1/2, geometric mean (CV%) (converted))?
The half-life was 24 h.

And the Tmax [1, 6]?
The Tmax was 4 h.

And the Tmax [1, 7]?
Its Tmax is 3 h.

And the “Increase in exposure with daily itraconazole coadministration” value ([1]; ripretinib 50 mg + itraconazole 200 mg QD vs ripretinib alone)?
Its value is “up to 99%”.

What about the “Time postdose that mean plasma concentration remained above the LLOQ” value ([1]; ripretinib 50 mg alone (itraconazole study)) of the same compound?
Its value is 96 h.

And the “CL/F, arithmetic mean (SD)” value [1, 6]?
Its value is 7 (3) L/h.

And the “CL/F, geometric mean (CV%)” value [1, 6]?
Its value is 6 (48) L/h.

What about the “CL/F, arithmetic mean (SD)” value [1, 7] of the same compound?
Its value is 13 (5) L/h.

What about the “CL/F, geometric mean (CV%)” value [1, 7] of the same compound?
The value was 12 (42) L/h.

And the “Geometric LS mean ratio of AUC0–t” value [1, 8]?
Its value is 198%.

And the “Geometric LS mean ratio of AUC0–∞ (90% CI)” value [1, 8]?
The value was 199 (174–227) %.

And the “Geometric LS mean ratio of Cmax (90% CI)” value [1, 8]?
The value was 136% and 136 (116–159) %.

What about the “Geometric LS mean ratio of AUC0–∞ (90% CI)” value ([1]; ripretinib 50 mg with itraconazole 200 mg QD relative to ripretinib alone, listed as ripretinib) of the same compound?
Its value is 199%.

What about the “Time postdose that mean plasma concentration remained above the LLOQ” value ([1]; ripretinib 50 mg with itraconazole) of the same compound?
The value was “up to 168 hours”.

What about the “Stability in human plasma at room temperature” value ([2]; 16 hours at room temperature under normal laboratory lighting) of the same compound?
Its value is “stable”.

What about the “Stability in human plasma, freeze–thaw” value ([2]; four cycles of freeze (−20 and −70°C) and thaw (room temperature)) of the same compound?
Its value is “stable”.

And the “Dose proportionality of AUC” value [3, 9]?
The value was “generally proportional to dose”.

And the “Dose proportionality of Cmax” value [3, 9]?
The value was “less than dose proportional”.

And the “Time to maximum plasma concentrations” value ([3]; cancer patients, after a single dose)?
The value was “approximately 4 hours”.

What about the “Time to reach steady-state conditions” value ([3]; cancer patients) of the same compound?
Its value is no more than 14 days.

And the Accumulation ratio ([3]; once-daily dosing of 150 mg)?
Its Accumulation ratio is “approximately 1.7”.

What about the Maximum tolerated dose ([3]; patients with cancer, doses up to ripretinib 200 mg twice daily) of the same compound?
Its Maximum tolerated dose is “not reached”.

And the “Steady-state PK exposure, 150 mg twice daily compared with 150 mg once daily” value ([3]; patients)?
Its value is “approximately 2 fold”.

And the “Solubility, pH dependence” value [4]?
The value was “reduced solubility at neutral pH”.

What about the Major metabolic pathway [5] of the same compound?
Its Major metabolic pathway is “N‐demethylation”.
